Source: patent EP0300675A2, “Method for the improvement of cyclosporine therapy” (MERCK FROSST CANADA INC., priority 1987, dated 1989)

System: cyclosporine A-induced nephrotoxicity
Assay: cyclosporine A-induced nephrotoxicity (rise in serum BUN) in SHR rats dosed for 14 days
Type: in vivo, female spontaneously hypertensive (SHR) rats
Settings: for Serum BUN ± S.E.M.: 14 days; for inhibition of the increase in serum BUN: 3 mg/kg/day in saline
Description: All experiments were carried out using female spontaneously hypertensive (SHR) rats, weight range 160-200 gm, obtained from Taconic Farms. […] Four thromboxane antagonists have been studied so far. […] Thromboxane antagonists have been administered as the sodium salt dissolved in saline, the sodium salt dissolved in 0.1% NaHCO₃ or the free acid suspended in 1% Methocel.

[1] = 3 mg/kg/day in saline with cyclosporine A 25 mg/kg/day, Combined experiments
[2] = 3 mg/kg/day in saline with cyclosporine A 25 mg/kg/day, Experiment 1
[3] = second experiment combined together

O=C(O)CC1CCCc2c1n(Cc1ccc(Cl)cc1)c1ccc(F)cc21 (racemic) [Compound 2, 9-(p-Chlorobenzyl)-6-fluoro-1,2,3,4-tetrahydrocarbazol-1-yl acetic acid]
Serum BUN ± S.E.M. [1]: 30.3 ± 2.0 mg/100 ml | Serum BUN ± S.E.M. [2]: 24.6 ± 1.7 mg/100 ml | inhibition of the increase in serum BUN (one experiment (Table 2)): significant inhibition | inhibition of the increase in serum BUN [3]: no significant inhibition

O=C(O)CC1CCCc2c1n(Cc1ccc(Cl)cc1)c1c(F)cc(F)cc21 (single isomer, unassigned; (-)) [Compound 3, (-)-9-(p-Chlorobenzyl)-6,8-difluoro-1,2,3,4-tetrahydrocarbazol-1-yl acetic acid]
Serum BUN ± S.E.M. (3 mg/kg/day, suspension of free acid in 1% Methocel, with cyclosporine A 25 mg/kg/day, Table 4 (two separate experiments)): 23.2 ± 0.9 mg/100 ml | Serum BUN ± S.E.M. (10 mg/kg/day, suspension of free acid in 1% Methocel, with cyclosporine A 25 mg/kg/day, Table 4 (two separate experiments)): 24.0 ± 1.1 mg/100 ml | inhibition of the rise in serum BUN (both doses (3 and 10 mg/kg/day), suspension of the free acid, two separate experiments): significant inhibition

CS(=O)(=O)c1ccc(Cn2c3c(c4cc(F)cc(F)c42)CCCC3CC(=O)O)cc1 (single isomer, unassigned; (-)) [Compound 4, (-)-9-(p-Methylsulfonylbenzyl)-6,8-difluoro-1,2,3,4-tetrahydrocarbazol-1-yl acetic acid]
Serum BUN ± S.E.M. (3 mg/kg/day, suspension of free acid in 1% Methocel, with cyclosporine A 25 mg/kg/day, Table 5): 23.5 ± 1.0 mg/100 ml | Serum BUN ± S.E.M. (10 mg/kg/day, suspension of free acid in 1% Methocel, with cyclosporine A 25 mg/kg/day, Table 5): 21.9 ± 0.8 mg/100 ml | effect on cyclosporine A-induced rises in serum BUN (both 3 and 10 mg/kg/day, suspension of the free acid): effective

Cc1c(CC(C)(C)C(=O)O)n(Cc2ccc(Cl)cc2)c2ccc(F)cc12 [Compound 1, 3-(1-(4-Chlorobenzyl)-3-methyl-5-fluoroindol-2 yl)-2,2-dimethyl propanoic acid]
inhibition of the increase in serum BUN induced by cyclosporine A (3 mg/kg/day in 0.1% NaHCO₃): No significant inhibition | Serum BUN ± S.E.M. (3 mg/kg/day in 0.1% NaHCO₃ with cyclosporine A 25 mg/kg/day): 28.3 ± 2.2 mg/100ml | Serum BUN ± S.E.M. [1]: 28.0 ± 1.6 mg/100 ml | Serum BUN ± S.E.M. [2]: 24.5 ± 1.1 mg/100 ml | inhibition of the increase in serum BUN (one experiment (Table 2)): significant inhibition | inhibition of the increase in serum BUN [3]: no significant inhibition | Serum BUN ± S.E.M. (10 mg/kg/day in 0.1% NaHCO₃ with cyclosporine A 25 mg/kg/day, 2 separate experiments): 23.4 ± 0.9 mg/100ml | inhibition of the increase in serum BUN induced by cyclosporine A (10 mg/kg/day in 0.1% NaHCO₃, mean of two separate experiments, p < 0.05): significant inhibition
